Broadly, the half-life is how long it takes for the measured level to halve. For orientation: bioavailability means dose-corrected exposure relative to a reference, in per cent. High values mean good availability, low ones poor availability.

The values below come from ChEMBL document CHEMBL5325475, “Discovery of a Potent and Selective Tyrosine Kinase 2 Inhibitor: TAK-279” (J Med Chem, 2023).

Data set [1] is described as follows: in vivo. To be noted: C57Bl/6, mouse, po, 10 mg/kg.
A short description of data set [2]: in vivo. Conditions: Sprague-Dawley, rat, po, 10 mg/kg.
The nature of data set [3]: in vivo. Conditions: Sprague-Dawley, rat, po, 10 mg/kg. This is another data set of the same source.
A short description of data set [4]: in vivo. To be noted: beagle, dog, po, 10 mg/kg.
Data set [5] can be described thus: in vivo. Conditions: cynomolgus monkey, po, 10 mg/kg.
A short description of data set [6]: in vivo. To be noted: C57Bl/6, mouse, po, 10 mg/kg. This is another data set of the same source.
Data set [7] is described as follows: in vivo. To be noted: beagle, dog, po, 10 mg/kg. This is another data set of the same source.
A short description of data set [8]: in vivo. Conditions: cynomolgus monkey, po, 10 mg/kg. This is another data set of the same source.

With `CNc1cc(Nc2cccn(-c3ncccc3F)c2=O)nc2c(C(=O)N[C@@H]3CC[C@H]3OC)cnn12`, the half-life in data set [1] is 2.1 h; in data set [2], 5.9 h. The compound further returned a bioavailability in data set [3] of 30%.

On to `CNc1cc(Nc2cccn(-c3ncccc3F)c2=O)nc2c(C(=O)N[C@@H]3C[C@@H]3F)cnn12`, for which the half-life in data set [1] is 2.2 h; in data set [2], 2.7 h; in data set [4] it was 3 h; in data set [5], 1.4 h. For the same compound, the bioavailability in data set [6] was 52%; in data set [3] it was 59%; in data set [7] it was 51%; in data set [8], 97%.

As to `CNc1cc(Nc2cccn(-c3ccccn3)c2=O)nc2c(C(=O)N[C@H]3CC[C@@H]3OC)cnn12` (single isomer, unassigned), the half-life in data set [1] was 2 h; in data set [2], 1.2 h; in data set [4], 5.3 h; in data set [5] it was 3.8 h. For the same compound, the bioavailability is 70% in data set [6], 37% in data set [3], 47% in data set [7] and 47% in data set [8].
